From EP0777471B1, “INHIBITION OF LEUKOTRIENE BIOSYNTHESIS WITH UREA DERIVATIVES” (MINNESOTA MINING AND MANUFACTURING COMPANY, priority 1994, dated 1996)
Like-named read-outs stand apart in the source and are kept apart here.

Molecular target: T1, 5-lipoxygenase (Homo sapiens, UniProt P09917)
T1 construct: Whole human blood is collected by venipuncture into EDTA; endogenous in cells; host or cells: leukocytes isolated from whole human blood (dextran sedimentation, hypotonic lysis)
T1 sequence (P09917 1-674): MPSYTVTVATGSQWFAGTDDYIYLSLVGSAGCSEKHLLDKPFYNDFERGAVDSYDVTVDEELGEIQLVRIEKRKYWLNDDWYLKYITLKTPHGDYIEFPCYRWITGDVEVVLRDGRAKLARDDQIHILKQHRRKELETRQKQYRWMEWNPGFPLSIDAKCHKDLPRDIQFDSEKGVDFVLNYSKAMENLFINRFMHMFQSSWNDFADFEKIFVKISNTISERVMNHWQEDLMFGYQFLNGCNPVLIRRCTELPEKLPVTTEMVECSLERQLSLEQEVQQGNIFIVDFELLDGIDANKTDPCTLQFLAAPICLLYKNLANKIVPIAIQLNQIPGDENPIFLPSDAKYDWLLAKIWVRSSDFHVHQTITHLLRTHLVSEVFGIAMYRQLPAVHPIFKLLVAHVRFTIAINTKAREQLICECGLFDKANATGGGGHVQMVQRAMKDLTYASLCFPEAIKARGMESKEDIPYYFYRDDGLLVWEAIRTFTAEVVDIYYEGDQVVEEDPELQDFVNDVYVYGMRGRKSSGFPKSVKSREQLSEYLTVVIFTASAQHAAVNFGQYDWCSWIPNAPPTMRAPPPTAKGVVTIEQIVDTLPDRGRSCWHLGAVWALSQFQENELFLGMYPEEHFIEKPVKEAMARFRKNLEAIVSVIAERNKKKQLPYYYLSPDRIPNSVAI
Test: 5-Lipoxygenase inhibition in human leukocytes (A23187-stimulated, LTC4 radioimmunoassay)
Format: cell-based
Experimental: The test method described below measures the ability of compounds to inhibit 5-lipoxygenase activity in human leukocytes.
Whole human blood is collected by venipuncture into EDTA (1.4 mL of 0.25M per 60 mL of whole blood). The red blood cells are sedimented with a 6% dextran/0.9% sodium chloride solution at a ratio of 25 mL whole blood to 15 mL dextran solution. The blood/dextran combination is mixed by inversion and the red blood cells are allowed to settle out for 45 minutes at ambient temperature. The plasma/dextran supernatant is removed then centrifuged at ambient temperature at 3000 rpm for 10 minutes. The plasma/dextran supernatant is removed and the cells are resuspended in 10 mL of the plasma/dextran solution. […] The pellet is then resuspended into Tris buffer containing 1 mM calcium chloride to provide approximately 1.0 X 10^7 cells/mL.
Compounds are dissolved in dimethyl sulfoxide. […] Each concentration is tested in duplicate.
A 15 µL portion of Tris buffer containing 1 mM calcium chloride is added to each well of a 96 well microtiter plate. A 1 µL portion of drug solution or vehicle (dimethyl sulfoxide) is added to each well followed by the addition of an 75 µL portion of the cell suspension. The plates are gently mixed then allowed to stand at ambient temperature for 10 minutes. A 10 µL portion of 30 µM A23187 Calcium Ionophore (prepared by dissolving the ionophore in DMSO and then diluting 1:80 into the Tris buffer) is added to each well except the wells that contain the blanks (The blank wells measure the level of LTC4 production in the absence of A23187.). The plates are gently mixed then incubated at 37°C for 10 minutes.
Following incubation the plates are centrifuged at 2000 rpm for 1.5 minutes and the supernatant is removed as quickly as possible to stop the reaction. The supernatants are frozen at -20°C until they are assayed.
The supernatants are assayed for the presence of Leukotriene C4 by radioimmunoassay which is performed according to the manufacturer's (Advanced Magnetics; Cambridge, MA) instructions.

[1] = human leukocytes, A23187 Calcium Ionophore, LTC4 formed, read-out: IC50

SMILES	IC50 [1] [nM]	IC50 [nM]
COc1ccc(NC(=O)N(O)C(C)C)cc1 [Compound 23, 1-hydroxy-3-(4-methoxyphenyl)-1-(1-methylethyl)urea]	150	–
CC(C)N(O)C(=O)Nc1ccccc1F [Compound 20, 3-(2-fluorophenyl)-1-hydroxy-1-(1-methylethyl)urea]	700	–
CN(O)C(=O)Nc1cccc(F)c1 [Compound 8, 3-(3-fluorophenyl)-1-hydroxy-1-methylurea]	680	–
CN(O)C(=O)Nc1cccc([N+](=O)[O-])c1 [Compound 9, 1-hydroxy-1-methyl-3-(3-nitrophenyl)urea]	80	–
CN(O)C(=O)Nc1cccc(Br)c1 [Compound 6, 3-(3-bromophenyl)-1-hydroxy-1-methylurea]	70	–
CSc1cccc(NC(=O)N(O)C(C)C)c1 [Compound 16, 1-hydroxy-1-(1-methylethyl)-3-[3-(methylthio)phenyl]urea]	8	–
CN(O)C(=O)Nc1cccc(S(C)(=O)=O)c1 [Compound 59, 1-Hydroxy-1-methyl-3-[3-(methylsulfonyl)phenyl]urea]	1100	–
CC(C)CCN(O)C(=O)Nc1ccccc1 [Compound 44, 1-hydroxy-1-(3-methylbutyl)-3-phenylurea]	10	–
CC(C)CN(O)C(=O)Nc1ccccc1 [Compound 54, 1-Hydroxy-1-(2-methylpropyl)-3-phenylurea]	94	–
CC(C)N(O)C(=O)Nc1ccccc1Cl [Compound 24, 3-(2-chlorophenyl)-1-hydroxy-1-(1-methylethyl)urea]	–	200
CC(C)N(O)C(=O)Nc1ccccc1 [Compound 17, 1-hydroxy-1-(1-methylethyl)-3-phenylurea]	43	–
COc1cccc(NC(=O)N(C)O)c1 [Compound 5, 1-hydroxy-3-(3-methoxyphenyl)-1-methylurea]	420	–
CC(C)N(O)C(=O)Nc1ccc(Br)cc1 [Compound 19, 3-(4-bromophenyl)-1-hydroxy-1-(1-methylethyl)urea]	100	–
CSc1ccc(NC(=O)N(C)O)cc1 [Compound 1, 1-Hydroxy-1-methyl-3-[4-(methylthio)phenyl]urea]	83	–
Cc1ccccc1NC(=O)N(O)C(C)C [Compound 25, 1-hydroxy-1-(1-methylethyl)-3-(2-methylphenyl)urea]	130	–
CN(O)C(=O)Nc1ccccc1 [Compound 10, 1-hydroxy-1-methyl-3-phenylurea]	20	–
Cc1cccc(NC(=O)N(C)O)c1 [Compound 7, 1-hydroxy-1-methyl-3-(3-methylphenyl)urea]	280	–
CC(C)N(O)C(=O)Nc1ccc(F)cc1 [Compound 18, 3-(4-fluorophenyl)-1-hydroxy-1-(1-methylethyl)urea]	210	–
Cc1cccc(NC(=O)N(O)C(C)C)c1 [Compound 21, 1-hydroxy-1-(1-methylethyl)-3-(3-methylphenyl)urea]	230	–
